The test system of data set [1] is human ESCs. As for the experimental part: (§1) Endometrial tissue was obtained from human uteri after hysterectomy conducted for benign disease or from endometrial biopsies. Informed consent was obtained from each patient before surgery and protocols were approved by the Human Research Protection Office of Washington University (HRPO#07-0949). Tissues were placed in HBSS and transported to the laboratory. hESCs were isolated and cultured as previously described. In vitro decidualization was performed as previously described with several changes. Cells were seeded in 6-well plates at 2×10^5 cells/well in DMEM:F12 without phenol red, supplemented with 2% heat-inactivated charcoal dextran-stripped calf serum (HyClone) and 50 μg/ml penicillin/streptomycin (Cambrex Bio Science). Cells were treated with 1 μM medroxyprogesterone-17-acetate (MPA) (Sigma) and 0.5 mM N^6, 2′-O-Dibutyryladenosine 3′,5′-cyclic monophosphate sodium salt (db-cAMP) (Sigma). Control samples received 0.1% ethanol vehicle control.

In data set [2] the test system is human immortalized ESCs. To be noted: 1 μM and 1.5 μM IA; 5-3H-glucose for four hours.
Description: In order to confirm inhibition of glycolysis, human immortalized ESCs were incubated in the presence of 5-^3H-glucose for four hours and the amount of ^3H2O production (H2O produced from the 5th hydrogen of glucose is a product of glycolysis) in ESCs exposed to different concentrations of IA was measured (FIG. 2b).
For data set [3], the system named is murine ESCs. Put plainly: In vitro decidualization of primary murine ESCs (Prp mRNA). To be noted: 3 days in vitro culture. It counts as cell-based, mouse. The text has this: (§2) In order to confirm that this is not a side effect of ESC immortalization with telomerase overexpression in this human cell line, the effect of DHEA on decidualization of primary ESC cultures from mouse and human uteri was also investigated. Murine ESCs were isolated from the gravid uterus at 4 days post coitus and cultured in vitro for 3 days to induce decidualization as described in the Methods. […] The human primary ESCs were isolated from uteri following hysterectomy for benign disease as outlined in the Methods and cultured in decidualization media for 9 days.
For in vitro decidualization of ESCs, female mice were sacrificed at 4dpc. Pregnancy was confirmed by flushing dissected uterine horns and ostia with HBSS and observing for presence of blastocysts. Uteri confirmed for pregnancy were cut into 1 mm^3 pieces and incubated in Dulbecco's modified Eagle's Medium:F12 medium (DMEM:F12) without phenol red supplemented with 2 g/liter Collagenase Type I (Gibco) for 60-90 min at 37° C. Tissues were vortexed every 15 min during incubation. Following incubation, the solution was passed through a 40 μm sieve (BD Falcon) and centrifuged at 1100 rpm for 5 min. […]

The subject of data set [4] is ESC-T cells. Put plainly: In vitro decidualization of immortalized human ESC-T cells (decidualization marker mRNA, morphology). It counts as cell-based.
Description: Decidualization in human cells was monitored by measuring the mRNA expression of two decidualization markers, PRL and IGFBP1.
This NADP+ analog inhibits two enzymes in the PPP, G6PD and 6GPDH, which utilize NADP+ and convert it into NADPH.
Two major results of the PPP are the production of ribose 5-phosphate and regeneration of NADPH. Production of ribose 5-phosphate is a central component in the de novo synthesis of ribonucleosides (RNs) and deoxyribonucleosides (DRNs). […] To address this question, ESC-T cultures were used and the differentiation media was supplemented with RNs and DRNs during treatment with PPP inhibitors.
as §1
Human immortalized ESC (ESC telomerase immortalized, ESC-T), were decidualized in vitro in the presence of 0, 2.5 or 5 mM GlcN for 9 days.

For data set [5], the system named is hESC-Ts. Nature of the data set: Radiolabeled glucose flux (1-14C, 6-14C, 5-3H-glucose) in hESC-Ts. It counts as cell-based, human. As for the experimental part: For these experiments, hESCs immortalized via overexpression of telomerase (hESC-Ts) were used. […] The response of these cells to PPP inhibitors was also tested in order to confirm their similar dependence on the pathway for differentiation. In order to determine glucose flux through the various metabolic pathways in ESCs the metabolic fates of 1-^14C—, 6-^14C—, and 5-^3H-glucose was followed. hESC-Ts were incubated for 3 h with one of the radiolabled glucoses and production of ^14CO2 or ^3H2O was compared between the four treatment groups, control, decidualized, and decidualized with 2 μM or 5 μM 6-AN (FIG. 6). […] This was an indication that the flux through the TCA cycle or PPP was decreased in the inhibitor-treated ESCs. […] Therefore, inhibiting G6PD with 6-AN has no effect on TCA flux, but directly lowers the metabolism of glucose through PPP. The ratio of 1-C:6-C, which summarizes the relative preference of the PPP, can then be seen as decreasing in the presence of the inhibitor 6-AN.
This indicates an increase in the amount of glucose entering glycolysis without continuing into the TCA cycle, possibly being converted into lactate.

Data set [6] relates to ESC-T cells. Nature of the data set: EdU incorporation proliferation assay. Format: cell-based, human. The text has this:
Other groups have shown that DHEA has anti-proliferative effects in a number of cell-lines and tissues. Thus, it was hypothesized that perhaps the PPP inhibitors prevent the proliferation of ESC-Ts and that this is an additional effect, independent of their role in decidualization inhibition. In a human uterus the stromal cells go through a cyclical oscillation between proliferation and differentiation, determined by the hormonal milieu. ESC-Ts in vitro remain in the proliferative state until they are exposed to differentiation media, which causes the cells to halt cell division and enter differentiation. Proliferation of ESC-T cells were monitored by EdU incorporation in vitro, which indicates entry into the S-phase of the cell cycle, in the absence of the differentiation hormones.
Following 60 hr of the treatment indicated in the experiment, EdU was added to the culture medium at a concentration of […]. Cells were harvested and stained using the Click-iT EdU Flow Cytometry Kit (Invitrogen). Quantitative data were collected using a BD FACSCalibur flow cytometer (Becton Dickinson, San Jose, Calif.) and analyzed with FlowJo software (TreeSTar, Inc., Ashland, Oreg.). For confocal microscopy, the cells were stained on coverslips using the same protocol. Nuclei were counterstained with TOPRO-iodide (Molecular probes) at a 1:500 dilution. Cells were mounted on slides using Vectashield (Vector Labs) and visualized using a Nikon C1 microscope.

Data set [7] relates to ICR female mice. Nature of the data set: Intrauterine DHEA or 6-AN pellet and pregnancy outcome. Format: in vivo, mouse. On the procedure:
ICR female mice had either placebo (n=26), DHEA (1.5 mg/60 days)(n=20), or 6-AN pellets (150, 15, 1.5 mcg/60 days)(n=24) placed into the uterine horn after index delivery. Females were then mated and litter size was measured over the following 120 days post pellet. Mice were housed according to the Institutional Animal Care and use Committee and NIH guidelines. Day to first litter, number of litters, number of pups, average pups/litter were recorded. Serum DHEA levels were quantified (Alpco, Salem, N.H.). All pellets (placebo, DHEA, 6-AN) were custom-formulated (Innovative Research, Inc).

Data set [8] deals with human primary ESCs. Nature of the data set: In vitro decidualization of human primary ESCs (decidualization marker mRNA). Format: cell-based.
Description: as §2
Control samples received 0.1% ethanol vehicle control.

In data set [9] the target is T1, G6PDH (Homo sapiens, UniProt P11413).
T1 construct: endogenous in cells; host or cells: human telomerase-immortalized endometrial stromal cells (ESC-T)
Put plainly: G6PDH activity in decidualized ESC-T cells exposed to GlcN. Format: cell-based. On the procedure:
(§3) Human immortalized ESC (ESC telomerase immortalized, ESC-T), were decidualized in vitro in the presence of 0, 2.5 or 5 mM GlcN for 9 days. […] Thus, it was concluded that perturbation of the PPP activity by GlcN might lead to the failure of ESC decidualization and thus possibly be one of the first non-hormonal inhibitors of decidualization. Finally, in vivo evidence is provided that female mice with a time-release GlcN pellet (15-1500 μg) implanted in one uterine horn, delivered fewer live pups per litter over a 60-day period than those with control pellet implantation (8.25 vs 4.23 pups/litter; FIG. 25).

In data set [10] the test system is ESC-T. Nature of the data set: Viability of ESC-T with GlcN (MTT assay and flow cytometry). It counts as cell-based, human. To be noted: 0, 2.5 or 5 mM GlcN for 9 days. As for the experimental part:
as §3

For data set [11], the system named is ICR female mice. Put plainly: Intrauterine time-release GlcN pellet and pups per litter. Format: in vivo, mouse. To be noted: time-release GlcN pellet (15-1500 μg) in one uterine horn; 60-day period. On the procedure:
FIG. 25A-B graphically depicts decreased birth rate by glucosamine in ICR mice. 6 weeks old ICR female mice were implanted with a control or GlcN (15-1500 μg) pellet on one uterine horn and (A) with or (B) without the hysterectomy on the other uterine horn. Pups per litter in pellet implanted female mice crossed with males were recorded. **, P<0.01.
as §3

Setting [12] is: decidualized cells with 2 μM or 5 μM 6-AN, 3 h.

Each structure is given as a SMILES string.

T1 sequence (P11413 whole entry): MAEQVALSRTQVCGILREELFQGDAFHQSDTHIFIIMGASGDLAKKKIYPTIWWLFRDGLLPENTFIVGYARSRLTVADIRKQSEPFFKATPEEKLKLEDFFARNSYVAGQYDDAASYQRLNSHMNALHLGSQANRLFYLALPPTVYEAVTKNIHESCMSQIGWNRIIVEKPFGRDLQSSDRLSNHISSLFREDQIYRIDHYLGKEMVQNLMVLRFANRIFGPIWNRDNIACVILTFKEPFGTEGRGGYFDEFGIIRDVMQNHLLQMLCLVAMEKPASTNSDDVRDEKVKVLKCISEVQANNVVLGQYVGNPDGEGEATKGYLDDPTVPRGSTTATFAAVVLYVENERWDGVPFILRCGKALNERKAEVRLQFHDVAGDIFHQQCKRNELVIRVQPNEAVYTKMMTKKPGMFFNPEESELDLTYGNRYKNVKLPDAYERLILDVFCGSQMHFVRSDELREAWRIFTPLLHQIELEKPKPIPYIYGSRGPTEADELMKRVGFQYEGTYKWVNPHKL

As for `O=C(O)CI` [IA, Iodoacetate], the “Decidualization assessed by Prl marker expression” value in data set [1] (IA concentrations below the toxic threshold) is on record as “not affected”. Moreover, the “Concentration inducing cell death” value in data set [1] (within 24 hr of administration) was at least 2 µM. Further, in data set [2], the “Reduction of flux of glucose through glycolysis” value is on record as 40%.
In the case of `NC(=O)c1ccc(N)nc1` [6-AN, 6-aminonicotinamide], the “Prp mRNA expression” value in data set [3] is given as “decreased Prp expression”. Also, the “Expression of PRL and IGFBP” value in data set [4] (10 μM 6AN, day 3 to day 9 in culture) was “inhibited”. Further, in [5] (setting [12]), the “Metabolism of glucose labeled at the C-1 position (14CO2)” value is given as “lower in the decidualized cells exposed to 6-AN in a concentration dependent manner” and the “Metabolism of the 6-C labeled glucose (14CO2)” value was “not affected”. In addition, the “Glycolytic flux of 5-3H labeled glucose” value in data set [5] (decidualized cells with 5 μM 6-AN) is reported as “returned almost to the same levels as the control”. In addition, the “Ratio of 1-C:6-C (relative preference of the PPP)” value in data set [5] (presence of 6-AN) is listed as “decreasing”. Moreover, the “EdU-positive nuclei vs DMSO control” value in data set [6] (100 μM DHEA, 50 μM 6AN) is listed as “drastic decrease”. For the same compound, the “Proliferation by EdU geometric mean fluorescence intensity (flow cytometry)” value in data set [6] (4 independent experiments) is recorded as “decreases proliferation of ESC-Ts in a concentration dependent manner”. Besides, the “Reduction in average pup/litter size” value in data set [7] (6-AN pellet, not significant from control (p=0.4)) is listed as 37.7%. For the same compound, the “Average time to first litter” value in data set [7] (intrauterine pellet: DHEA 1.5 mg/60 days, 6-AN 150, 15, 1.5 mcg/60 days, controls 27 days) was 34 days. The “Expression of PRL and IGFBP1” value in data set [8] (9 days in decidualization media) is “decreased”.
Consider `N[C@H]1C(O)O[C@H](CO)[C@@H](O)[C@@H]1O` (some centres unmarked) [GlcN, glucosamine], for which the “mRNA expression of prolactin, somatostatin, interleukin-15, left-right determination factor 2, tissue inhibitor of metalloproteinase 3” value is “significantly lower expression levels” in data set [4] (GlcN 2.5 or 5 mM, quantitative RT-PCR) and “significantly lower expression levels” in [8] (GlcN, day 9 of culture). Further, the “Expression levels of PRL and SMST over time” value in data set [4] (GlcN, day 3 through day 9) is “decreased the expression levels”. For the same compound, in [9], the “G6PDH activity vs control cells” value was “significantly lower”. For the same compound, in data set [10], the Viability / proliferation result was “viability similar to control cells”. Also, in data set [11], the “Live pups per litter” value is on record as 4.23 pups/litter.
